Among the data in patent US8133913B2, “Substituted indeno [1,2-b]indole derivatives as novel inhibitors of protein kinase CK2 and their use as tumor therapeutic agents, cytostatics and diagnostic aids” (Heinrich-Heine Universitat Dusseldof, priority 2006, dated 2012) are IC50 values, retold here.

Where two headings read alike, the source gives them in different places. Where only a bound is given, the exact number is not on record here.

Common to all, as to assay: Radiometric protein kinase assay (33PanQinase Activity Assay)
Common to all, as to type: biochemical

One assay concerns the target T1, ARK5 (Homo sapiens, UniProt O60285).
T1 construct: made in house; host or cells: Sf9 insect cells, baculovirus
T1 sequence (O60285 1-661): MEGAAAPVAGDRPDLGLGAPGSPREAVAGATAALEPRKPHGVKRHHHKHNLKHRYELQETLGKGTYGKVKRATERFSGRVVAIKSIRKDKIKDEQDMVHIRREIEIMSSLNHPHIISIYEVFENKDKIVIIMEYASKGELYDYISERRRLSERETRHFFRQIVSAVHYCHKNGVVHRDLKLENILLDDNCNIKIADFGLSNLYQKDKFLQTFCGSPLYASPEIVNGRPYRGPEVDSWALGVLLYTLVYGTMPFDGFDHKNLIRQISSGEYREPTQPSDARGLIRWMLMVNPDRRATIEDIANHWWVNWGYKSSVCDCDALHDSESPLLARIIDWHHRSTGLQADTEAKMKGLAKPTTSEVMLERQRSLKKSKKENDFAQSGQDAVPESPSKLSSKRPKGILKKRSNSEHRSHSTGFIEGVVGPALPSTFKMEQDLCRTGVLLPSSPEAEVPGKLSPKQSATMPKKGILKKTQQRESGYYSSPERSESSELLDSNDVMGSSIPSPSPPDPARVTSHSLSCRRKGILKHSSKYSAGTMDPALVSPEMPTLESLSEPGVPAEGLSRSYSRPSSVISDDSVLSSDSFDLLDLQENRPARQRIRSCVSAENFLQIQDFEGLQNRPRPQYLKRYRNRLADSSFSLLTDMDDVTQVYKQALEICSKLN
The source says:
(§1) AKTI1, ARK5, Aurora-A, Aurora-B, B-RAF-VE, CDK2/CycA, CDK4/CycD1, CK2-alpha1 (catalytic subunit of CK2), EGF-R, EPHB4, ERBB2, FAK, IGF1-R, SRC, VEGF-R2, VEGF-R3, FLT3, INS-R, MET, PDGFR-beta, PLK1, SAK, TIE2, COT.
(§2) All the protein kinases were expressed in Sf9 insect cells as human recombinant GST fusion proteins or His-tagged proteins by the baculovirus expression system. Kinases were purified by affinity chromatography either by GSH-agarose (Sigma) or Ni—NTH-agarose (Qiagen). The purity of the kinases was tested by SDS-PAGE/silver staining, and the identity of the kinases was verified by Western blot analysis with specific antibodies or mass spectroscopy.
(§3) A radiometric protein kinase assay (33PanQinase® Activity Assay) was used to measure the kinase activity for the 24 protein kinases. The kinase assays were carried out in 96-well FlashPlates™ from Perkin Elmer/NEN (Boston, Mass., USA) in a reaction volume of 50 μl. The reaction mixture was pipetted in 4 steps in the following sequence: • 20 μl of assay buffer • 5 μl of ATP solution (in H2O) • 5 μl of test compound (in 10% DMSO) • 10 μl of substrate/10 μl of enzyme solution (premixed)
(§4) The assays for all the enzymes contained 60 mM HEPES-NaOH, pH 7.5, 3 mM MgCl2, 3 mM MnCl2, 3 μM Na orthovanadate, 1.2 mM DTT, 50 μg/ml PEG20000, 1 μM [γ-^33P]-ATP (about 5×10^5 cpm per well).
(§5) The reaction mixture was incubated at 30° C. for 80 minutes. The reaction was stopped with 50 μl of 2% (v/v) H3PO4. The plates were aspirated and washed twice with 200 μl of 0.9% (w/v) NaCl. The incorporation of ^33Pi was determined using a microtiter plates scintillation counter (Microbeta Trilux, Wallac).

Another assay deals with T2, ERBB2 (Homo sapiens, UniProt P04626).
T2 construct: made in house; host or cells: Sf9 insect cells, baculovirus
T2 sequence (P04626 23-1255): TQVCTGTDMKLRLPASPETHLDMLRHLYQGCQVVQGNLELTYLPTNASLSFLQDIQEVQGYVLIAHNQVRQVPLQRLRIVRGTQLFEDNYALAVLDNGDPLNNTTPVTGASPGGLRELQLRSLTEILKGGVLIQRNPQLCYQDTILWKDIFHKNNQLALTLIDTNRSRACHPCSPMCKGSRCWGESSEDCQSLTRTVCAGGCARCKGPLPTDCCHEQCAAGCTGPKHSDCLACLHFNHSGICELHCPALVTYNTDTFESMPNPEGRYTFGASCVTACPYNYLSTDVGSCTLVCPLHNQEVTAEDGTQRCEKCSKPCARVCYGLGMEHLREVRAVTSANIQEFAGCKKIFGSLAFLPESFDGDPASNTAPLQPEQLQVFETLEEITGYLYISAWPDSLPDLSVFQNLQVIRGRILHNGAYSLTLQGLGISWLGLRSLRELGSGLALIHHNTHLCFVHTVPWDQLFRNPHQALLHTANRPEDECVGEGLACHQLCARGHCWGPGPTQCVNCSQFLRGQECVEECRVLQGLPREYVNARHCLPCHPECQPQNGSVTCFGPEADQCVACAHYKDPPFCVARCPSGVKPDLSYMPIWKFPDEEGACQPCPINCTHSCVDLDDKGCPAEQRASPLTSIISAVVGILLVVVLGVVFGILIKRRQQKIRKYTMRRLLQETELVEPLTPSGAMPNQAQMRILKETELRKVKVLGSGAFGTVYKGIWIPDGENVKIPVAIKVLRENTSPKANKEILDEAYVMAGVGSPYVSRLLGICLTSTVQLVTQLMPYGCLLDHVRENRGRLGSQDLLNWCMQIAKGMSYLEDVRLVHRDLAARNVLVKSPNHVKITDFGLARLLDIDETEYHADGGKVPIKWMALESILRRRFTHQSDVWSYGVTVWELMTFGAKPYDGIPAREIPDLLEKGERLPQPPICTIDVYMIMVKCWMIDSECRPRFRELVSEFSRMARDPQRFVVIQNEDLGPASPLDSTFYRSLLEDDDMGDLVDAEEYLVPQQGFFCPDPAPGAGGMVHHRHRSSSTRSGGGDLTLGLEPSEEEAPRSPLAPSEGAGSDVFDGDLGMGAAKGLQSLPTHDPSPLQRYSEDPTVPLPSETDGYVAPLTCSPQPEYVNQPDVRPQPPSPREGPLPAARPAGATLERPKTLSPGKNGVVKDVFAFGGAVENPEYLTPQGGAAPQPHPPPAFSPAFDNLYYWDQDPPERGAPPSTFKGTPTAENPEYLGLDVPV
From the text: as §1, §2, §3, §4, §5

The target in the next assay is T3, EPHB4 (Homo sapiens, UniProt P54760).
T3 construct: made in house; host or cells: Sf9 insect cells, baculovirus
T3 sequence (P54760 16-987): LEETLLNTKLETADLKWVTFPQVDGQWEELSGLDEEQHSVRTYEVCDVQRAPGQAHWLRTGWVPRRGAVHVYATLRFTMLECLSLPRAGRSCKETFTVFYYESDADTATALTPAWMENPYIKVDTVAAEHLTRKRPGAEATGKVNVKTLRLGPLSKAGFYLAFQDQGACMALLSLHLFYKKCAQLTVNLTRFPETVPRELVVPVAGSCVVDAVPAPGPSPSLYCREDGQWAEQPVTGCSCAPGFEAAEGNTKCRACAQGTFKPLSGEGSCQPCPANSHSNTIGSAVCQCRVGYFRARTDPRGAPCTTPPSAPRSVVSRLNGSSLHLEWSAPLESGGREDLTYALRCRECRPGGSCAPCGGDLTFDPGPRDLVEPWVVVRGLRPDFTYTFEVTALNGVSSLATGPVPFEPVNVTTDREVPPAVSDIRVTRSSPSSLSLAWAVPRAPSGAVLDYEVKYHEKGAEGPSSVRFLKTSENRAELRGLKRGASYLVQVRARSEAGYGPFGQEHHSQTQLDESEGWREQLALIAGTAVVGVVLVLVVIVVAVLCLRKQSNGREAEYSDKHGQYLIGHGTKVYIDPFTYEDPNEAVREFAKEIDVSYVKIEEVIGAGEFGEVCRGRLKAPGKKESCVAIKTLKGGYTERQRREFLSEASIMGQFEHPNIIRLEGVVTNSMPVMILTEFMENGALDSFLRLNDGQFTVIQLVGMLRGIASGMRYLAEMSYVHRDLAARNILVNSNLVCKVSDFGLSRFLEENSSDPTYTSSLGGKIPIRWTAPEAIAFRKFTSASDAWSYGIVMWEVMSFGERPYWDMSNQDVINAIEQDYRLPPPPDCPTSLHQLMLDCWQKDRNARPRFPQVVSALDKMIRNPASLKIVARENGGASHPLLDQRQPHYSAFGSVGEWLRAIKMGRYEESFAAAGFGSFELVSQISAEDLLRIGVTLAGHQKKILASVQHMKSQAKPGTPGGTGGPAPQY
From the text: as §1, §2, §3, §4, §5

Another assay addresses T4, Aurora-A (Homo sapiens, UniProt O14965).
T4 construct: made in house; host or cells: Sf9 insect cells, baculovirus
T4 sequence (O14965 1-403): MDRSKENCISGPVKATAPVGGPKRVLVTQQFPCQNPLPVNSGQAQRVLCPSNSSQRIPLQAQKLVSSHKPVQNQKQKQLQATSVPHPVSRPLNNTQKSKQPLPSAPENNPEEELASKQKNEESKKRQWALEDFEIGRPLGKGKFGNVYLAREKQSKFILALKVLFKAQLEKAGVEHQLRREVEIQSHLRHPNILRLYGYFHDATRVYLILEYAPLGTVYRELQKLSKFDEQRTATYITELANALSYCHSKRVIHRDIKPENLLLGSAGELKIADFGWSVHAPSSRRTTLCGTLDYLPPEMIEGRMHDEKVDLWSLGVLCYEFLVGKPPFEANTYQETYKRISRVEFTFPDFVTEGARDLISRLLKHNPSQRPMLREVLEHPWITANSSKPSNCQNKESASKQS
From the text: as §1, §2, §3, §4, §5

[1] abbreviates: 1 μM ATP, read-out: IC50 values [μM] ARK5.
Where [2] appears, read: 1 μM ATP, read-out: IC50 values [μM] ERBB2.
The mark [3] stands for this setting: 1 μM ATP, read-out: IC50 values [μM] EPHB4.
Where [4] appears, read: 1 μM ATP, read-out: IC50 values [μM] Aurora-A.

One may read the IC50 as the midpoint of a concentration-inhibition curve. Consider `CC(C)n1c2c(c3c1-c1ccccc1C3=O)C(=O)CCC2` [Compound 4b, 5-Isopropyl-5,6,7,8-tetrahydroindeno[1,2-b]indole-9,10-dione], for which the IC50 against ARK5, against ERBB2, at EPHB4 and against Aurora-A was over 10 µM throughout.
As for `O=c1ccc(=O)c2c1c1c(=O)c3ccccc3c1n2Cc1ccccc1` [Compound 6c, 5-Benzyl 5,6,9,10-tetrahydroindeno[1,2-b]indole-6,9,10-trione], the IC50 on ARK5 (setting [1]) is 1.3 µM; on ERBB2 (setting [2]), 7.6 µM; at EPHB4 (setting [3]) it was 9.3 µM; at Aurora-A (setting [4]) it was over 10 µM.
As to `CC(C)n1c2c(=O)ccc(=O)c2c2c(=O)c3ccccc3c21` [Compound 6b, 5-Isopropyl-5H-indeno[1,2-b]indole-6,9,10-trione], the IC50 on ARK5 (setting [1]) is 0.17 µM; on ERBB2 (setting [2]), over 10 µM; on EPHB4 (setting [3]), over 10 µM; on Aurora-A (setting [4]), 5.8 µM.
